Laboratory results: patent US4751217A, “Physiologically active substances named SEN-366” (Nippon Shinyaku Co., Ltd., priority 1984, dated 1988)
Converted amounts (≈) assume the structure as drawn. “Also recorded” adds a separate entry of the source.

Tests used:
[1] = tested on: platelet aggregation (collagen); test: Inhibitory action against platelet aggregation, inducer collagen; type: cell-based; settings: for IC50: Oryctolagus cuniculus, Platelet, collagen 10 μg/ml, rabbit PRP
Protocol: (§1) Inhibitory Action against Platelet Aggregation:
(§2) (1) Materials and Method:
(§3) The sample is tested after dissolved in dimethyl sulfoxide. The preparation is conducted so as to make the final concentration of the solvent 1%. Dimethyl sulfoxide of the same concentration is used as a control. As to inducers for platelet aggregation, ADP (final concentration: 5 μm), AA (arachidonic acid) (final concentration: 150 μM) and collagen (final concentration: 10 μg/ml) are used.
(§4) (2) Preparation of platelet:
Blood is taken from total neck artery of male rabbits of 2.0-2.5 kg body weight. […] The precipitate is further centrifuged at 1600×g for 10 minutes and the resulting supernatant liquid is used as plasma with poor platelet (hereinafter abbreviated as PPP).
(§5) (3) Method for Measuring Aggregation Power:
(§6) A measuring apparatus for platelet aggregation is used and the changes in absorbancy by the aggregation with an elapse of time are recorded.
(§7) Thus, 200 microliters of PRP is taken, its difference between PPP is adjusted to a certain value, then 25 microliters of control solution or test solution is added, the mixture is stirred (1000 rpm) for 1 minutes, 25 microliters of aggregation inducer is added, and the changes in absorbancy are recorded. The inhibitory ratio is calculated from the following expression from the maximum aggregation ratio of the control (A in %) and that of the test solution (B in %): [formula]
as §3, with “μM),” for “μm),”
(§8) Blood is taken from total neck artery of male rabbits of 2.0-2.5 kg body weight. To the blood is added 1/10 volume of 3.8% citric acid solution, the mixture is gently stirred, centrifuged 1300×g for 2 minutes, and the resulting supernatant liquid is used as plasma with abundant platelet (hereinafter abbreviated as PRP). The precipitate is further centrifuged at 1600×g for 10 minutes and the resulting supernatant liquid is used as plasma with poor platelet (hereinafter abbreviated as PPP).
as §7, with “minute,” for “minutes,”

[2] = tested on: platelet aggregation (ADP); test: Inhibitory action against platelet aggregation, inducer ADP; type: cell-based; settings: for IC50: Oryctolagus cuniculus, Platelet, ADP 5 μM, rabbit PRP
Protocol: as §1, §2, §3, §4
as §8, with “sodium citrate” for “citric acid”
as §5, §6, §7
(§9) Inhibitory ratios with varied test solution concentrations are calculated and the IC50 (50% inhibitory concentration) is calculated therefrom.
as §3, with “μM),” for “μm),”
as §8
as §7, with “minute,” for “minutes,”

[3] = tested on: platelet aggregation (AA); test: Inhibitory action against platelet aggregation, inducer arachidonic acid (AA); type: cell-based; settings: for IC50: Oryctolagus cuniculus, Platelet, AA 150 μM, rabbit PRP
Protocol: as §1, §2, §3, §4
as §8, with “sodium citrate” for “citric acid”
as §5, §6, §7, §9
as §3, with “μM),” for “μm),”
as §8
as §7, with “minute,” for “minutes,”

[4] = Solubility; type: physicochemical; settings: qualitative, in named solvents
[5] = Table 1, rabbit PRP, listed as A3
[6] = Table 1, rabbit PRP, listed as A4
[7] = Table 1, rabbit PRP, listed as B3
[8] = Table 1, rabbit PRP, listed as B4
[9] = Table 1, rabbit PRP, listed as BT1
[10] = Table 1, rabbit PRP, listed as BT2
[11] = Table 1, rabbit PRP, listed as BT3
[12] = Table 1, rabbit PRP, listed as BT4
[13] = Table 2, rabbit PRP, listed as CB3
[14] = Table 2, rabbit PRP, listed as CB4
[15] = Table 2, rabbit PRP, listed as E3
[16] = Table 2, rabbit PRP, listed as E4
[17] = Table 2, rabbit PRP, listed as M3
[18] = Table 2, rabbit PRP, listed as M4

CC(=O)OC1CCC(OC2CCC(OC3C=CC(=O)C(C)O3)C(C)O2)C(C)O1 (stereo not shown) [SEN-366-A1]
IC50 Collagen 10 μg/ml ([1]; Table 1, rabbit PRP, listed as A1): < 0.1 µg/mL
IC50 ([2]; Table 1): 0.22 µg/mL (≈ 0.552 µM)
IC50 ([3]; Table 1): 1.2 µg/mL (≈ 3.01 µM)

CC(=O)OC1CCC(OC2CCC(OC3CCC(=O)C(C)O3)C(C)O2)C(C)O1 (stereo not shown) [SEN-366-A2]
IC50 ([1]; Table 1): 0.54 µg/mL (≈ 1.35 µM)
IC50 ADP 5 μM ([2]; Table 1, rabbit PRP, listed as A2): 1.6 µg/mL (≈ 4 µM)
IC50 ([3]; Table 1): 6 µg/mL (≈ 15 µM)

CC(=O)OC1CCC(OC2CCC(OC3C=CC(=O)C(C)O3)C(C)O2)C(C)O1 (stereo not shown) [SEN-366-A3]
IC50 Collagen 10 μg/ml [1, 5]: 0.47 µg/mL (≈ 1.18 µM)
IC50 ADP 5 μM [2, 5]: 0.44 µg/mL (≈ 1.1 µM)
IC50 AA 150 μM [3, 5]: 1.6 µg/mL (≈ 4.02 µM)

CC(=O)OC1CCC(OC2CCC(OC3CCC(=O)C(C)O3)C(C)O2)C(C)O1 (stereo not shown) [SEN-366-A4]
IC50 Collagen 10 μg/ml [1, 6]: 0.27 µg/mL (≈ 0.674 µM)
IC50 ADP 5 μM [2, 6]: > 10 µg/mL
IC50 AA 150 μM [3, 6]: 5.4 µg/mL (≈ 13.5 µM)

CC1OC(OC2CCC(OC3CCC(OC(=O)c4ccccc4)OC3C)OC2C)C=CC1=O (stereo not shown) [SEN-366-B1]
IC50 ([1]; Table 1): 0.16 µg/mL (≈ 0.347 µM)
IC50 ([2]; Table 1): 1.1 µg/mL (≈ 2.39 µM)
IC50 ([3]; Table 1): 0.32 µg/mL (≈ 0.695 µM)

CC1OC(OC2CCC(OC3CCC(OC(=O)c4ccccc4)OC3C)OC2C)CCC1=O (stereo not shown) [SEN-366-B2]
IC50 ([1]; Table 1): 1.7 µg/mL (≈ 3.68 µM)
IC50 ([2]; Table 1): 5.7 µg/mL (≈ 12.3 µM)
IC50 ([3]; Table 1): 1.6 µg/mL (≈ 3.46 µM)

CC1OC(OC2CCC(OC3CCC(OC(=O)c4ccccc4)OC3C)OC2C)C=CC1=O (stereo not shown) [SEN-366-B3]
IC50 Collagen 10 μg/ml [1, 7]: 0.17 µg/mL (≈ 0.369 µM)
IC50 ADP 5 μM [2, 7]: 1.0 µg/mL (≈ 2.17 µM)
IC50 AA 150 μM [3, 7]: 0.55 µg/mL (≈ 1.19 µM)

CC1OC(OC2CCC(OC3CCC(OC(=O)c4ccccc4)OC3C)OC2C)CCC1=O (stereo not shown) [SEN-366-B4]
IC50 Collagen 10 μg/ml [1, 8]: 2.9 µg/mL (≈ 6.27 µM)
IC50 ADP 5 μM [2, 8]: 6.5 µg/mL (≈ 14.1 µM)
IC50 AA 150 μM [3, 8]: 1.2 µg/mL (≈ 2.59 µM)

CCCC(=O)OC1CCC(OC2CCC(OC3C=CC(=O)C(C)O3)C(C)O2)C(C)O1 (stereo not shown) [SEN-366-BT1]
IC50 ([1]; Table 1): 0.17 µg/mL (≈ 0.399 µM)
IC50 ADP 5 μM [2, 9]: 1.1 µg/mL (≈ 2.58 µM)
IC50 AA 150 μM [3, 9]: 1.55 µg/mL (≈ 3.63 µM)

CCCC(=O)OC1CCC(OC2CCC(OC3CCC(=O)C(C)O3)C(C)O2)C(C)O1 (stereo not shown) [SEN-366-BT2]
IC50 Collagen 10 μg/ml [1, 10]: 0.53 µg/mL (≈ 1.24 µM)
IC50 ADP 5 μM [2, 10]: 1.35 µg/mL (≈ 3.15 µM)
IC50 AA 150 μM [3, 10]: 2.1 µg/mL (≈ 4.9 µM)

CCCC(=O)OC1CCC(OC2CCC(OC3C=CC(=O)C(C)O3)C(C)O2)C(C)O1 (stereo not shown) [SEN-366-BT3]
IC50 Collagen 10 μg/ml [1, 11]: 0.16 µg/mL (≈ 0.375 µM)
IC50 ADP 5 μM [2, 11]: 0.47 µg/mL (≈ 1.1 µM)
IC50 AA 150 μM [3, 11]: 0.64 µg/mL (≈ 1.5 µM)

CCCC(=O)OC1CCC(OC2CCC(OC3CCC(=O)C(C)O3)C(C)O2)C(C)O1 (stereo not shown) [SEN-366-BT4]
IC50 Collagen 10 μg/ml [1, 12]: 1.6 µg/mL (≈ 3.73 µM)
IC50 ADP 5 μM [2, 12]: 5.3 µg/mL (≈ 12.4 µM)
IC50 AA 150 μM [3, 12]: 5.7 µg/mL (≈ 13.3 µM)

CC1OC(OC2CCC(OC3CCC(OC(=O)c4ccc(Cl)cc4)OC3C)OC2C)C=CC1=O (stereo not shown) [SEN-366-CB1]
IC50 ([1]; Table 2): 0.06 µg/mL (≈ 0.121 µM)
IC50 ([2]; Table 2): 0.3 µg/mL (≈ 0.606 µM)
IC50 ([3]; Table 2): 1.1 µg/mL (≈ 2.22 µM)

CC1OC(OC2CCC(OC3CCC(OC(=O)c4ccc(Cl)cc4)OC3C)OC2C)CCC1=O (stereo not shown) [SEN-366-CB2]
IC50 ([1]; Table 2): 1 µg/mL (≈ 2.01 µM)
IC50 ([2]; Table 2): 3.2 µg/mL (≈ 6.44 µM)
IC50 ([3]; Table 2): 6.2 µg/mL (≈ 12.5 µM)

CC1OC(OC2CCC(OC3CCC(OC(=O)c4ccc(Cl)cc4)OC3C)OC2C)C=CC1=O (stereo not shown) [SEN-366-CB3]
IC50 Collagen 10 μg/ml [1, 13]: 0.053 µg/mL (≈ 0.107 µM)
IC50 ADP 5 μM [2, 13]: 0.29 µg/mL (≈ 0.586 µM)
IC50 AA 150 μM [3, 13]: 0.68 µg/mL (≈ 1.37 µM)

CC1OC(OC2CCC(OC3CCC(OC(=O)c4ccc(Cl)cc4)OC3C)OC2C)CCC1=O (stereo not shown) [SEN-366-CB4]
IC50 Collagen 10 μg/ml [1, 14]: 1.7 µg/mL (≈ 3.42 µM)
IC50 ADP 5 μM [2, 14]: 4.2 µg/mL (≈ 8.45 µM)
IC50 AA 150 μM [3, 14]: > 5 µg/mL

CCOC1CCC(OC2CCC(OC3C=CC(=O)C(C)O3)C(C)O2)C(C)O1 (stereo not shown) [SEN-366-E1]
IC50 Collagen 10 μg/ml ([1]; Table 2, rabbit PRP, listed as E1): 2.0 µg/mL (≈ 5.2 µM)
IC50 ([2]; Table 2): 7.2 µg/mL (≈ 18.7 µM)
IC50 ([3]; Table 2): 10.3 µg/mL (≈ 26.8 µM)

CCOC1CCC(OC2CCC(OC3CCC(=O)C(C)O3)C(C)O2)C(C)O1 (stereo not shown) [SEN-366-E2]
IC50 ([1]; Table 2): 22.1 µg/mL (≈ 57.2 µM)
IC50 ([2]; Table 2): > 100 µg/mL
IC50 ([3]; Table 2): 52 µg/mL (≈ 135 µM)

CCOC1CCC(OC2CCC(OC3C=CC(=O)C(C)O3)C(C)O2)C(C)O1 (stereo not shown) [SEN-366-E3]
IC50 Collagen 10 μg/ml [1, 15]: 4.4 µg/mL (≈ 11.4 µM)
IC50 ADP 5 μM [2, 15]: 12.4 µg/mL (≈ 32.3 µM)
IC50 AA 150 μM [3, 15]: 14.0 µg/mL (≈ 36.4 µM)

CCOC1CCC(OC2CCC(OC3CCC(=O)C(C)O3)C(C)O2)C(C)O1 (stereo not shown) [SEN-366-E4]
IC50 Collagen 10 μg/ml [1, 16]: 16.5 µg/mL (≈ 42.7 µM)
IC50 ADP 5 μM ([2]; Table 2, rabbit PRP): > 100 µg/mL
IC50 AA 150 μM [3, 16]: 65.0 µg/mL (≈ 168 µM)

CC1OC(OC2CCC(O)OC2C)C=CC1=O (stereo not shown) [SEN-366-F0]
IC50 ([1]; Table 3): 1.5 µg/mL (≈ 6.19 µM)
IC50 ([2]; Table 3): 9.3 µg/mL (≈ 38.4 µM)
IC50 ([3]; Table 3): 3.4 µg/mL (≈ 14 µM)

CC1OC(OC2CCC(OC3CCC(=O)OC3C)OC2C)C=CC1=O (stereo not shown) [SEN-366-L1]
IC50 ([1]; Table 2): 5 µg/mL (≈ 14.1 µM)
IC50 ([2]; Table 2): 12 µg/mL (≈ 33.9 µM)
IC50 ([3]; Table 2): 27 µg/mL (≈ 76.2 µM)

COC1CCC(OC2CCC(OC3C=CC(=O)C(C)O3)C(C)O2)C(C)O1 (stereo not shown) [SEN-366-M1]
IC50 ([1]; Table 2): 5.5 µg/mL (≈ 14.8 µM)
IC50 ([2]; Table 2): 17 µg/mL (≈ 45.9 µM)
IC50 ([3]; Table 2): 29 µg/mL (≈ 78.3 µM)

COC1CCC(OC2CCC(OC3CCC(=O)C(C)O3)C(C)O2)C(C)O1 (stereo not shown) [SEN-366-M2]
IC50 ([1]; Table 2): 16.3 µg/mL (≈ 43.8 µM)
IC50 ([2]; Table 2): 55 µg/mL (≈ 148 µM)
IC50 ([3]; Table 2): 42 µg/mL (≈ 113 µM)

COC1CCC(OC2CCC(OC3C=CC(=O)C(C)O3)C(C)O2)C(C)O1 (stereo not shown) [SEN-366-M3]
IC50 Collagen 10 μg/ml [1, 17]: 5.2 µg/mL (≈ 14 µM)
IC50 ADP 5 μM [2, 17]: 15.0 µg/mL (≈ 40.5 µM)
IC50 AA 150 μM [3, 17]: 25.0 µg/mL (≈ 67.5 µM)

COC1CCC(OC2CCC(OC3CCC(=O)C(C)O3)C(C)O2)C(C)O1 (stereo not shown) [SEN-366-M4]
IC50 Collagen 10 μg/ml [1, 18]: 18.0 µg/mL (≈ 48.3 µM)
IC50 ADP 5 μM [2, 18]: 53.0 µg/mL (≈ 142 µM)
IC50 AA 150 μM [3, 18]: 47.0 µg/mL (≈ 126 µM)

CC1OC(OC2CCC(OC3CCC(O)OC3C)OC2C)C(O)CC1=O (stereo not shown) [SEN-366-P]
IC50 ([1]; Table 1): 1.6 µg/mL (≈ 4.27 µM)
IC50 ([2]; Table 1): 4.4 µg/mL (≈ 11.8 µM)
IC50 ([3]; Table 1): 25 µg/mL (≈ 66.8 µM)
Solubility [4]: Soluble in water, methanol, ethanol, chloroform, acetone and ethyl acetate; also recorded: hardly soluble in petroleum ether and n-hexane
